According to patent publication US6506707B1, “Herbicidal compositions containing plant essential oils and mixtures or blends thereof” (Ecosmart Technologies, Inc., priority 1999, dated 2003):

What was measured:
[1] = tested on: greenhouse-grown cabbage leaves; assay: Direct droplet bioassay on cabbage leaves (Examples 5 and 7); format: in vivo; settings: applied in one microliter of methanol; for EC50 (amount producing 50% of maximum effect): cabbage leaves; for relative toxicity to cabbage leaves (ranking by EC50): individual oils
Description: Various plant essential oils were tested for toxicity (herbicidal action) against greenhouse-grown cabbage leaves. Individual oils were ranked for relative toxicity using the direct droplet bioassay on the cabbage leaves.
Various plant essential oils were tested for synergistic effects on the toxicity (herbicidal action) against greenhouse-grown cabbage leaves. Individual oils were ranked for relative toxicity using the direct droplet bioassay on the cabbage leaves, and compared to mixtures at different ratios. […]

dandelion = assay: Direct droplet bioassay on dandelion (Example 6); format: in vivo; settings: individual oils, applied in one microliter of methanol
Description: Various plant essential oils were tested for toxicity (herbicidal action) against dandelion. Individual oils were ranked for relative toxicity using the direct droplet bioassay on the dandelion. EC50 values (amount producing 50% of maximum effect) were recorded in micrograms (all applied in one microliter of methanol) and plotted on a graph for comparison.

Row | EC50 (amount producing 50% of maximum effect) [1] | Compound | relative toxicity to dandelion (ranking by EC50) (dandelion) | relative toxicity to cabbage leaves (ranking by EC50) [1]
1 | 158.8 micrograms | CCC(=O)OCCc1ccccc1 [Phenethyl Propionate (PEP), Phenethyl Propionate] |  | 
2 | 10.7 micrograms | Cc1ccc(C(C)C)c(O)c1 [Thymol] |  | 
3 |  | CC12CCC(CC1)C(C)(C)O2 [cineole, Cineole] | most toxic | 
4 |  | O=C/C=C/c1ccccc1 [cinnamic aldehyde, Cinnamic Aldehyde] | most toxic | most toxic
5 |  | CC(C)=CCCC(C)CC=O (stereo not drawn) [citronellal, Citronellal] | most toxic | most toxic
6 |  | COC(=O)c1ccccc1O [methyl salicylate, Methyl Salicylate] | most toxic | most toxic
7 |  | Cc1ccc(C(C)C)c(O)c1 [white thymol, White Thymol] | most toxic | most toxic

Row | Compound | EC50 (amount producing 50% of maximum effect) [1] | relative toxicity to dandelion (ranking by EC50) (dandelion) | relative toxicity to cabbage leaves (ranking by EC50) [1]
8 | C=CCc1ccc(O)c(OC)c1 [Eugenol] | 46.1 micrograms |  | 
